Test results as given in PMC11172375, “Preclinical Evaluation of Biodistribution and Toxicity of [^211At]PSMA-5 in Mice and Primates for the Targeted Alpha Therapy against Prostate Cancer” (International Journal of Molecular Sciences, 2024).
“Also recorded” adds a separate entry of the source.

Assays:
[1] = Biodistribution in cynomolgus monkey (planar/SPECT imaging, 24 h autopsy); assay type: in vivo; settings: 9 MBq/kg i.v.
Protocol: (§1) [^211At]PSMA-5 was administered intravenously to 25 mice, and its biodistribution was evaluated. For the toxicity study, three doses of [^211At]PSMA-5 (5, 12, and 35 MBq/kg, single dose) or saline were intravenously administered to 10 mice/group for the main evaluation point on day 1, and 5-mice/group for recovery evaluation on day 14, adhering to the ICH M3 (R2) guidelines. The dosage was determined based on our previous study using [^211At]NaAt. The monkeys were monitored for 24 h post-administration of [^211At]PSMA-5 (9 MBq/kg).
Monkeys were anesthetized with intramuscular administration of ketamine (10 mg/kg) and xylazine (0.5 mg/kg) with isoflurane inhalation anesthesia. Planar and Single Photon Emission Computed Tomography (SPECT) imaging was performed in monkeys using a γ-camera system (E-cam, Siemens, Erlangen, Germany) immediately after administration to 1 h and at 3 and 24 h post-administration of [^211At]PSMA-5 (9 MBq/kg), targeting the X-rays emitted from the daughter nuclide ^211Po (energy window: 79 keV ± 20%). […]
Urine and feces samples were collected at each time point. […] Organ weights and radiation doses were measured using a γ-counter (model: 2480Wizard2, PerkinElmer) and γ-camera system (E-cam) by appropriate cross-calibration.

[2] = TLC metabolite analysis of blood samples, monkeys; assay type: in vivo; settings: cynomolgus monkeys, plasma
Protocol: (§2) Monkeys were anesthetized with intramuscular administration of ketamine (10 mg/kg) and xylazine (0.5 mg/kg) with isoflurane inhalation anesthesia. Planar and Single Photon Emission Computed Tomography (SPECT) imaging was performed in monkeys using a γ-camera system (E-cam, Siemens, Erlangen, Germany) immediately after administration to 1 h and at 3 and 24 h post-administration of [^211At]PSMA-5 (9 MBq/kg), targeting the X-rays emitted from the daughter nuclide ^211Po (energy window: 79 keV ± 20%). Subsequent image analysis was performed by setting the regions of interest using Osirix MD software (Version 13, Pixmeo SARL, Bernex, Switzerland) and PMOD software (Version 3.903, PMOD Technologies, Fällanden, Switzerland). Blood samples were obtained pre-administration and at 1, 3, and 24 h post-administration, followed by euthanasia via bloodletting at 24 h.
The blood samples were centrifuged at 3000 rpm for 5 min, and the resulting plasma was mixed with twice the volume of ethanol, then agitated vigorously. The supernatants were analyzed by thin-layer chromatography (TLC).

[3] = Extended single-dose toxicity study in mice: general condition, body weight, organ weight; assay type: in vivo, ICR mice; settings: for testes organ weight: day 14
Protocol: This study was conducted in compliance with the Animal Experiment Regulations and the Act on Welfare and Management of Animals of the Osaka University Graduate School of Medicine (approval numbers: 04-070 and 04-094). Normal male ICR mice (n = 85, 5–6 weeks old, body weight: 29.4 ± 2.3 g) and cynomolgus monkey (n = 2, body weight: 2.10 and 2.05 kg) were purchased from Japan SLC Inc. (Hamamatsu, Japan) and Hamri Co., Ltd. (Ibaraki, Japan), respectively. The animals were housed under a 12 h light/12 h dark cycle. General condition and body weight were monitored.
as §1
The brain, salivary gland, thyroid, heart, lungs, liver, kidney, adrenal gland, pancreas, spleen, thymus, stomach, small intestine, large intestine, bladder, prostate, and testes were collected on days 1 or 14 in mice and at 24 h in monkeys. Additionally, the pituitary gland, tongue, trachea, esophagus, mesenteric lymph nodes, epididymis, seminal vesicles, skin, mammary glands, spinal cord, bone, bone marrow (femur), eyeball, and optic nerve were collected from the mice. After fixation, paraffin sections were prepared and stained with hematoxylin and eosin (HE). All the specimens were evaluated by an expert in toxic pathology using an integrated fluorescence microscope (BZ-X810; Keyence Corporation. Osaka, Japan). In mice, the brain, salivary glands, heart, lungs, liver, gallbladder, spleen, kidneys, and testes were weighed according to ICH S4 guideline.

[4] = Blood chemistry analysis in monkeys; assay type: in vivo, cynomolgus monkeys; settings: for ALB / ALP / ALT / AMY / AST / BUN / CK / CRE / K / LDH / Na / TBIL / TCHO / TG / TP / γ-GTP / GLU: monkeys, 9 MBq/kg i.v.
Protocol: as §1, §2
A blood cell counter was used for the measurements (CB-1010; ARKRAY, Inc., Kyoto, Japan). Red blood cell count (RBC), hemoglobin concentration (Hb), hematocrit (Ht), white blood cell count (WBC), platelet count (platelet), lymphocytes (%Lymph), monocytes (%Mon), and granulocytes (%Gra) were calculated. Plasma was analyzed using a dry clinical chemistry analyzer (Spotchem D-00 QR D-02; ARKRAY, Inc., Kyoto, Japan). The levels of aspartate aminotransferase (AST), alanine aminotransferase (ALT), gamma-glutamyl transpeptidase (γ-GTP), lactate dehydrogenase (LDH), alkaline phosphatase (ALP), creatine kinase (CK), amylase (AMY), total bilirubin (TBIL), creatinine (CRE), urea nitrogen (BUN), glucose (GLU), total protein (TP), albumin (ALB), total cholesterol (TCHO), triglyceride (TG), and electrolytes (Na, K, and Cl) were measured.

[5] = 24 hrs, might be affected by hemolysis

O=C(O)CC[C@H](NC(=O)N[C@@H](CCCCNC(=O)[C@@H](Cc1ccc2ccccc2c1)NC(=O)c1ccc(CNC(=O)[C@@H](CCC(=O)O)NC(=O)[C@@H](CCC(=O)O)NC(=O)Cc2ccc([211At])cc2)cc1)C(=O)O)C(=O)O [[^211At]PSMA-5]
cumulative fecal excretion [1]: 11.27 %ID
cumulative urinary excretion [1]: 0.46 %ID
metabolites in blood samples (TLC) [2]: no metabolites were detected
STD10 in human after body surface area conversion ([3]; converted from mice): > 2.8 MBq/kg
body weight compared to the control ([3]; mice, 12 MBq/kg, day 5): significant decrease in body weight
testes organ weight ([3]; mice, 12 MBq/kg): 0.18 ± 0.02 g
body weight compared to the control ([3]; mice, 35 MBq/kg, day 10): significant decrease in body weight
testes organ weight ([3]; mice, 35 MBq/kg): 0.17 ± 0.003 g
severe toxicity or death ([3]; mice, highest dose 35 MBq/kg, 14-day observation): No severe toxicity or death was observed; also recorded: no severe toxicity
STD10 (dose that causes severe toxicity in 10% of test animals) ([3]; mice, single i.v. dose): exceed 35 MBq/kg
LDH levels ([4]; cynomolgus monkeys, 9 MBq/kg): elevated in both monkeys
renal function or electrolyte levels ([4]; cynomolgus monkeys, 9 MBq/kg): No significant changes
monkeys with a mild increase in amylase ([4]; cynomolgus monkeys, 9 MBq/kg, 24 h post-administration): 1/2
ALB ([4]; 1 hr): 2.5 ± 0.4 g/dL
ALP ([4]; 1 hr): 835 ± 173.6 IU/L
ALT ([4]; 1 hr): 11.3 ± 1.8 IU/L
AMY ([4]; 1 hr): 291 ± 62.2 IU/L
AST ([4]; 1 hr): 13.3 ± 4.6 IU/L
BUN ([4]; 1 hr): 24.8 ± 2.5 mg/dL
CK ([4]; 1 hr): 496 ± 321.4 IU/L
CRE ([4]; 1 hr): 0.5 ± 0.2 mg/dL
K ([4]; 1 hr): 4.3 ± 0.2 mEq/L
LDH ([4]; 1 hr): 231 ± 27.9 IU/L
Na ([4]; 1 hr): 140 ± 2.8 mEq/L
TBIL ([4]; 1 hr): 0.3 ± 0.1 mg/dL
TCHO ([4]; 1 hr): 84 ± 24 mg/dL
TG ([4]; 1 hr): 25.5 ± 0.7 mg/dL
TP ([4]; 1 hr): 3.6 ± 0.4 g/dL
γ-GTP ([4]; 1 hr): 61.8 ± 8.1 IU/L
GLU ([4]; 1 hr, suggests contamination from the infusion fluid): 309 ± 177 mg/dL
ALB ([4]; 3 hrs): 2.5 ± 0.1 g/dL
ALP ([4]; 3 hrs): 890 ± 47.4 IU/L
ALT ([4]; 3 hrs): 12 ± 2.8 IU/L
AMY ([4]; 3 hrs): 342 ± 38.2 IU/L
BUN ([4]; 3 hrs): 27 ± 1.4 mg/dL
CK ([4]; 3 hrs): 522 ± 101.8 IU/L
CRE ([4]; 3 hrs): 0.75 ± 0.21 mg/dL
GLU ([4]; 3 hrs): 62 ± 56.6 mg/dL
K ([4]; 3 hrs): 4.9 ± 0.4 mEq/L
LDH ([4]; 3 hrs): 255 ± 4.9 IU/L
Na ([4]; 3 hrs): 143 ± 0 mEq/L
TBIL ([4]; 3 hrs): 0.3 ± 0.0 mg/dL
TCHO ([4]; 3 hrs): 91 ± 17 mg/dL
TG ([4]; 3 hrs): 28 ± 4.2 mg/dL
TP ([4]; 3 hrs): 3.7 ± 0.1 g/dL
γ-GTP ([4]; 3 hrs): 66.5 ± 19.1 IU/L
ALB ([4]; 24 hrs): 2.7 ± 0 g/dL
ALP ([4]; 24 hrs): 768 ± 34.4 IU/L
ALT ([4]; 24 hrs): 24.8 ± 21 IU/L
AMY ([4]; 24 hrs): 565 ± 197 IU/L
BUN ([4]; 24 hrs): 35.7 ± 2.4 mg/dL
CK ([4]; 24 hrs): 713 ± 293.9 IU/L
CRE ([4]; 24 hrs): 0.7 ± 0.0 mg/dL
GLU ([4]; 24 hrs): 77.7 ± 1.4 mg/dL
K ([4]; 24 hrs): 4 ± 0.2 mEq/L
Na ([4]; 24 hrs): 146 ± 3.1 mEq/L
TBIL ([4]; 24 hrs): 0.7 ± 0.3 mg/dL
TCHO ([4]; 24 hrs): 90.7 ± 0.5 mg/dL
TG ([4]; 24 hrs): 28.7 ± 4.7 mg/dL
TP ([4]; 24 hrs): 4.2 ± 0.4 g/dL
γ-GTP ([4]; 24 hrs): 65 ± 17.9 IU/L
AST [4, 5]: 38.7 ± 19.3 IU/L
LDH [4, 5]: 471 ± 30.2 IU/L
